In publication PMC11554998, “Machine learning-aided search for ligands of P2Y6 and other P2Y receptors” (Purinergic Signalling, 2024):

How the values were obtained:
P2Y6 receptor (hP2Y6R) = target: T1, P2Y6 receptor (hP2Y6R) (Homo sapiens, UniProt Q15077); experiment: FLIPR calcium mobilization, inhibition of UDP ([…]) response in […]1-hP2Y6R cells; format: cell-based; settings: read-out: P2Y6R, mean IC50 ± SEM (μM) or % inhibition at 400 μM^a
T1 construct: gene P2RY6

P2Y14 receptor (hP2Y14R) = target: T2, P2Y14 receptor (hP2Y14R) (Homo sapiens, UniProt Q15391); experiment: competitive binding vs fluorescent antagonist MRS4174, whole CHO-hP2Y14R cells, flow cytometry; single concentration […]; format: cell-based; settings: read-out: P2Y14, % inhibition at 100 μM (n = 3)
T2 construct: gene P2RY14
T2 sequence (Q15391 1-338): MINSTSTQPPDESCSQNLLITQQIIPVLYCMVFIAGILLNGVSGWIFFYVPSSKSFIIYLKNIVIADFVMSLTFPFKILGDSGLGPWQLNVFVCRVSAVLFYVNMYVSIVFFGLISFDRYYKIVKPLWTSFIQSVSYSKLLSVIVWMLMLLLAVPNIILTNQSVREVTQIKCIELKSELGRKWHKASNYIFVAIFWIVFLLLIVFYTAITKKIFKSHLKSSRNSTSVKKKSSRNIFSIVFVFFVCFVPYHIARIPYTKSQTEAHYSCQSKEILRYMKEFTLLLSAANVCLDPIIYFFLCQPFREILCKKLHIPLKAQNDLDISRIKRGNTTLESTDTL

T1 sequence (Q15077 whole entry): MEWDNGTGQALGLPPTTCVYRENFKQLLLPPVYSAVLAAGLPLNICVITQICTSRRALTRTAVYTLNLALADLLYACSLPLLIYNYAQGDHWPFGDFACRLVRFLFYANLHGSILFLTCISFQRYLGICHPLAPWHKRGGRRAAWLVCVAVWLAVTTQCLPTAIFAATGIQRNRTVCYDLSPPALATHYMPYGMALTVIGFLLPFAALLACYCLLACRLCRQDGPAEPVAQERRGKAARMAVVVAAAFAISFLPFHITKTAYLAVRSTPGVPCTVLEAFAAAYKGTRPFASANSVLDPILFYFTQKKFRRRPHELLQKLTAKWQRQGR

IC50 (P2Y6 receptor (hP2Y6R)) | inhibition at 100 µM (P2Y14 receptor (hP2Y14R)) | Compound
75.7 ± 11.5 µM |  | CCNC(=O)c1cc2c(-c3cc(C(C)(C)O)ccc3Oc3c(C)cc(F)cc3C)cn(C)c(=O)c2[nH]1 [ABBV-744]
574 ± 181 µM |  | COc1cccc([C@@H](Oc2ccc3c(cnn3-c3ccc(F)cc3)c2)[C@H](C)NC(=O)C(F)(F)F)c1 [AZD5423]
 | 50 ± 4% | Cc1cc(C(=O)Nc2cc(Oc3ccc4nc(NC(=O)C5CC5)cn4n3)ccc2C)n(C)n1 [TAK-593]
